Data: PubChem BioAssay (NCI)
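Dose response: 5 concentrations. Exposure: 48 h. Format: 96-well plates. Endpoint: linear interpolation; highest concentration if not reached. GI50 marks 50% less growth. Definition used: TGI = concentration required for complete inhibition of growth.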

Assays:
Test in all cases: NCI anticancer screen, dose series, 48 h
[1] = test system: RXF 393 renal
[2] = test system: SF-268 CNS
[3] = test system: UACC-257 melanoma
[4] = test system: OVCAR-3 ovarian
[5] = test system: RPMI-8226 leukemia
[6] = test system: 786-0 renal
[7] = test system: MDA-MB-435
[8] = test system: HCT-116 colon
[9] = test system: CAKI-1 renal
[10] = test system: KM12 colon

`C=C1C(=O)O[C@@H]2C1C[C@@H](O)/C(C)=C/C/C=C(\C)CCC[C@H](C)[C@H]2OC(C)=O` (stereo not given in full) was tested, and the GI50 [1] was 19.3 µM, the TGI [1] was 50.2 µM and the GI50 [2] was 33.9 µM. The TGI [2] was > 100 µM, the GI50 [3] was 36.4 µM and the TGI [3] was > 100 µM. The GI50 [4] was 21.4 µM, the TGI [4] was 42.7 µM and the GI50 [5] was 24.9 µM. It also gave a TGI [5] of 48.6 µM, a GI50 [6] of 18.7 µM and a TGI [6] of 34.3 µM. It also gave a GI50 [7] of 24.4 µM, a TGI [7] of 58 µM and a GI50 [8] of 14.1 µM. For the same compound, the TGI [8] was 27 µM, the GI50 [9] was 32.8 µM and the TGI [9] was > 100 µM. For the same compound, the GI50 [10] was 20.8 µM and the TGI [10] was 41.7 µM.

With `N#Cc1ccccc1NC(=O)/C(=N\NC(=O)c1ccncc1)C(c1cnc2ccc([N+](=O)[O-])cc2n1)[N+](=O)[O-]` (stereo not given) the TGI [1] was > 100 µM, the TGI [2] was > 100 µM and the TGI [3] was > 100 µM. The TGI [4] was > 100 µM, the TGI [5] was > 100 µM and the TGI [6] was > 100 µM. The TGI [7] was > 100 µM, the TGI [8] was > 100 µM and the TGI [9] was > 100 µM. The TGI [10] was > 100 µM.

Work on `CCN1C(=O)N(CC)C2C1NN=c1s/c(=C3\C(=O)N(CC(C)C)c4ccccc43)c(=O)n12` (stereo not given) yielded a GI50 [1] of 0.335 µM, a TGI [1] of 2.45 µM and a GI50 [2] of 1.32 µM. For the same compound, the TGI [2] was > 59.9 µM, the TGI [3] was > 100 µM and the GI50 [4] was 0.284 µM. For the same compound, the TGI [4] was 0.799 µM, the GI50 [5] was 1.42 µM and the TGI [5] was > 100 µM. The GI50 [6] was 1.02 µM, the TGI [6] was 26.7 µM and the GI50 [7] was 0.224 µM. The TGI [7] was 0.521 µM, the GI50 [8] was 0.441 µM and the TGI [8] was > 100 µM. For the same compound, the GI50 [9] was 0.522 µM, the TGI [9] was > 100 µM and the GI50 [10] was 0.418 µM. The TGI [10] was > 100 µM.

With `CCC1=C[C@@H]2CN(C1)Cc1c([nH]c3ccccc13)[C@@](C(=O)OC)(c1cc3c(cc1OC)N(C=O)[C@H]1[C@@](O)(C(=O)OC)[C@H](OC(C)=O)[C@]4(CC)[C@@H]5C[C@@H]5CN5CC[C@]31[C@@H]54)C2` the GI50 [1] was 0.00155 µM, the TGI [1] was > 6.25 µM and the GI50 [2] was 0.00111 µM. For the same compound, the TGI [2] was > 6.25 µM, the GI50 [3] was > 6.25 µM and the TGI [3] was > 6.25 µM. The GI50 [4] was < 0.000625 µM, the GI50 [5] was < 0.000625 µM and the TGI [5] was > 6.25 µM. For the same compound, the GI50 [6] was 0.00587 µM, the TGI [6] was > 3.19 µM and the GI50 [7] was < 0.000625 µM. The TGI [7] was < 0.000625 µM, the GI50 [8] was < 0.000625 µM and the GI50 [9] was 0.253 µM. The TGI [9] was > 6.25 µM and the GI50 [10] was < 0.000625 µM.

Work on `CCOC(=O)CCCn1c(SC)nc2cc(-c3ccco3)[nH]c2c1=O` yielded a GI50 [1] of 12 µM, a TGI [1] of 30.6 µM and a GI50 [2] of 52.7 µM. For the same compound, the TGI [2] was > 100 µM, the GI50 [3] was > 100 µM and the TGI [3] was > 100 µM. The GI50 [4] was 48.2 µM, the TGI [4] was > 100 µM and the GI50 [5] was > 100 µM. For the same compound, the TGI [5] was > 100 µM, the GI50 [6] was 34.2 µM and the TGI [6] was > 100 µM. The GI50 [7] was > 100 µM, the TGI [7] was > 100 µM and the GI50 [8] was 49.8 µM. For the same compound, the TGI [8] was > 100 µM, the GI50 [9] was 25.8 µM and the TGI [9] was 90.4 µM. The GI50 [10] was > 100 µM and the TGI [10] was > 100 µM.

Compound `Nc1ccc(C(=O)c2ccc(N)c(Br)c2)cc1Br` has a GI50 [1] of 0.279 µM, a TGI [1] of 0.882 µM and a GI50 [2] of 0.747 µM. The TGI [2] was > 53.1 µM, the GI50 [3] was 14.4 µM and the TGI [3] was > 100 µM. The GI50 [4] was 0.234 µM, the TGI [4] was 0.517 µM and the GI50 [5] was 0.346 µM. The TGI [5] was 3.73 µM, the GI50 [6] was 0.775 µM and the TGI [6] was 17.8 µM. It also gave a GI50 [7] of 0.207 µM, a TGI [7] of 0.49 µM and a GI50 [8] of 0.461 µM. It also gave a TGI [8] of 11.6 µM, a GI50 [9] of 0.299 µM and a TGI [9] of 14.7 µM. The GI50 [10] was 0.409 µM and the TGI [10] was 12.8 µM.

`COc1ccc(CNc2nc3cc(N)cc(N)c3nc2-c2ccccc2)cc1OC` was tested, and the GI50 [1] was 12.7 µM, the TGI [1] was > 93.5 µM and the GI50 [2] was 16.6 µM. For the same compound, the TGI [2] was 65.9 µM, the GI50 [3] was 14.7 µM and the TGI [3] was 29.2 µM. The GI50 [4] was 1.31 µM, the TGI [4] was 3.33 µM and the GI50 [5] was 3.14 µM. For the same compound, the TGI [5] was 13.5 µM, the GI50 [6] was 15.7 µM and the TGI [6] was 33.5 µM. For the same compound, the GI50 [7] was 2.07 µM, the TGI [7] was 4.05 µM and the GI50 [8] was 15.4 µM. For the same compound, the TGI [8] was 31.5 µM, the GI50 [9] was 12.6 µM and the TGI [9] was 26.2 µM. It also gave a GI50 [10] of 12.8 µM and a TGI [10] of 28.4 µM.

For `N#CC1=C(N)NC(=S)NC12Nc1ccccc1O2` (stereo not given), the GI50 [1] was > 100 µM, the TGI [1] was > 100 µM and the GI50 [2] was 51.2 µM. For the same compound, the TGI [2] was > 100 µM, the GI50 [3] was 35.3 µM and the TGI [3] was > 100 µM. The GI50 [4] was 36.4 µM, the TGI [4] was > 100 µM and the GI50 [5] was 21.9 µM. For the same compound, the TGI [5] was 62.7 µM, the GI50 [6] was 30.1 µM and the TGI [6] was > 100 µM. The GI50 [7] was 16.8 µM, the TGI [7] was > 100 µM and the GI50 [8] was 22.5 µM. For the same compound, the TGI [8] was 85.2 µM, the GI50 [9] was 39.1 µM and the TGI [9] was > 100 µM. For the same compound, the GI50 [10] was 27.1 µM and the TGI [10] was > 100 µM.

`CCOC(=O)Cc1csc(/N=C2\NC(=O)/C(=C3\C(=O)N(C)c4ccccc43)S2)n1` was tested, and the GI50 [1] was 73.3 µM, the TGI [1] was > 100 µM and the GI50 [2] was 45.2 µM. For the same compound, the TGI [2] was > 100 µM, the GI50 [3] was 79.1 µM and the TGI [3] was > 100 µM. The GI50 [4] was 28.2 µM, the TGI [4] was 72.7 µM and the GI50 [5] was 32.4 µM. For the same compound, the TGI [5] was > 100 µM, the GI50 [6] was 28 µM and the TGI [6] was 72.5 µM. The GI50 [7] was 36.6 µM, the TGI [7] was > 100 µM and the GI50 [8] was 28.1 µM. For the same compound, the TGI [8] was 60.1 µM, the GI50 [9] was 23.5 µM and the TGI [9] was 67.9 µM. The GI50 [10] was 23.3 µM and the TGI [10] was 83.8 µM.

With `Cn1ccc2c(NCCN)c3c(c(NCCN)c21)C(=O)c1ccccc1C3=O` the GI50 [1] was 1.5 µM, the TGI [1] was 3.67 µM and the GI50 [2] was 1.47 µM. The TGI [2] was 7.11 µM, the GI50 [3] was 10.2 µM and the TGI [3] was > 27.7 µM. The GI50 [4] was 0.795 µM, the TGI [4] was 5.37 µM and the GI50 [5] was 0.455 µM. It also gave a GI50 [6] of 0.443 µM, a TGI [6] of 3.95 µM and a GI50 [7] of 1.54 µM. The TGI [7] was 5.59 µM, the GI50 [8] was 0.398 µM and the TGI [8] was 4.41 µM. For the same compound, the GI50 [9] was 2.51 µM, the TGI [9] was 9.48 µM and the GI50 [10] was 0.551 µM. It also gave a TGI [10] of 5.71 µM.

With `CCCCCNC(=O)[C@@H]1CCCN2C(=O)CC[C@H](NC(=O)[C@H](Cc3ccc(OP(=O)(O)O)cc3)NC(C)=O)C(=O)N12` the GI50 [1] was > 25 µM, the TGI [1] was > 25 µM and the GI50 [2] was > 25 µM. For the same compound, the TGI [2] was > 25 µM, the GI50 [3] was > 25 µM and the TGI [3] was > 25 µM. For the same compound, the GI50 [4] was > 25 µM, the TGI [4] was > 25 µM and the GI50 [5] was > 25 µM. For the same compound, the TGI [5] was > 25 µM, the GI50 [6] was > 25 µM and the TGI [6] was > 25 µM. The GI50 [7] was > 25 µM, the TGI [7] was > 25 µM and the GI50 [8] was > 25 µM. The TGI [8] was > 25 µM, the GI50 [9] was > 25 µM and the TGI [9] was > 25 µM. For the same compound, the GI50 [10] was > 25 µM and the TGI [10] was > 25 µM.
